Measured values as given in patent US6747016B1, “Substituted purine derivatives as inhibitors of cell adhesion” (Aventis Pharma Deutschland GmbH, priority 1999, dated 2004).

Key:
[1] = test system: bone resorption by osteoclasts; test: Pit Assay (osteoclast resorption test); format: cell-based; settings: inhibition of bone resorption
Text: The inhibition of bone resorption by the compounds of the invention can be determined, for example, with the aid of an osteoclast resorption test (“Pit Assay”), for example analogously to WO-A-95/32710 which is incorporated herein by reference.

[2] = molecular target: human vitronectin receptor αvβ3 (Homo sapiens, UniProt P05106+P06756); test: Kistrin binding assay (K/VnR, αvβ3 ELISA test); settings: inhibition of binding of kistrin to human vitronectin receptor
human vitronectin receptor αvβ3, sequence (P06756 31-889 limits assumed): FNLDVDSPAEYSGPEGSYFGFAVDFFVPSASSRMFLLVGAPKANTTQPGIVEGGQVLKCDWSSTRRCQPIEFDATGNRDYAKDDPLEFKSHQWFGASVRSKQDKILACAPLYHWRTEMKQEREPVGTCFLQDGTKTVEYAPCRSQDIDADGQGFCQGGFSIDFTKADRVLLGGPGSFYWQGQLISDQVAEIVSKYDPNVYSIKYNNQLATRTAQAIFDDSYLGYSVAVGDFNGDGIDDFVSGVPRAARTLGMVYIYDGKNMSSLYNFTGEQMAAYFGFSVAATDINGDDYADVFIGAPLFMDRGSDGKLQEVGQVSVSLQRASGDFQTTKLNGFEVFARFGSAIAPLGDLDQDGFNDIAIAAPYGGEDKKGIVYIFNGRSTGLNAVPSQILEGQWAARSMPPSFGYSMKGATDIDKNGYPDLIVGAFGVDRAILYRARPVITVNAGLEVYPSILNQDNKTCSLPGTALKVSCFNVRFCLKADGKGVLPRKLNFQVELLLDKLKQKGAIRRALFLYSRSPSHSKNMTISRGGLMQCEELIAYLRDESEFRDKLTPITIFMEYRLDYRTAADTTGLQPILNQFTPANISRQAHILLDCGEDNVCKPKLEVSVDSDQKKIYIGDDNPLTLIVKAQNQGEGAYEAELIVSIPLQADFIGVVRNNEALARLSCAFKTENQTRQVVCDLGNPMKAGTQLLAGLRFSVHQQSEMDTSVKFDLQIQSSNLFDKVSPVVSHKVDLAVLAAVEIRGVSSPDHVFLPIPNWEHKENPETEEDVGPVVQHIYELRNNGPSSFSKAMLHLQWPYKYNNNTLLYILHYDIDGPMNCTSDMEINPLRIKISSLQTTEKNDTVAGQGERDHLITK
human vitronectin receptor αvβ3, sequence (P06756 891-1048 limits assumed): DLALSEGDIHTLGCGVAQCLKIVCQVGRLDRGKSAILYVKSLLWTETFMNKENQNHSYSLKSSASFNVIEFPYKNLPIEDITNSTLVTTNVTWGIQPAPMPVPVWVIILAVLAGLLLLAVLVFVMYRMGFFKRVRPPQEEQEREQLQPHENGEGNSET
human vitronectin receptor αvβ3, sequence (P05106 27-788): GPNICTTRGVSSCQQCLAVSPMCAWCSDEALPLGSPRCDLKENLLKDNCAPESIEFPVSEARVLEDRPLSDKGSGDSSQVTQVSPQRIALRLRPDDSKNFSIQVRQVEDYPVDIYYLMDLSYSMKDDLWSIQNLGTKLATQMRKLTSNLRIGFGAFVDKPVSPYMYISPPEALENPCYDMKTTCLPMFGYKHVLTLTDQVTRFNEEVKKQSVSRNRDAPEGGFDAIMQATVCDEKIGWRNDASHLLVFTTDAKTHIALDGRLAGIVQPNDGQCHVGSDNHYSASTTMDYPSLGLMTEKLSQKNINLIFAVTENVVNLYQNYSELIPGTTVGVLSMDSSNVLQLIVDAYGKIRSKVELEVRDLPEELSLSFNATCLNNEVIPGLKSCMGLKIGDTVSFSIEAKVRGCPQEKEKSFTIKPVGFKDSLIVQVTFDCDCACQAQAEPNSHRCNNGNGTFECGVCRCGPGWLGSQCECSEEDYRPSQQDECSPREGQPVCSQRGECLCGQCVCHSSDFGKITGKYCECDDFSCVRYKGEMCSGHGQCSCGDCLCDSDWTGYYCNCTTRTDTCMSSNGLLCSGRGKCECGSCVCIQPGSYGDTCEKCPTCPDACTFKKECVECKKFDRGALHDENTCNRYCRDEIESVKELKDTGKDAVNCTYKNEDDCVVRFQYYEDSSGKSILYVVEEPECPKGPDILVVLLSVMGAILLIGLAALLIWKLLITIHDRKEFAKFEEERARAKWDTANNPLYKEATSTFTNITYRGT
Text: The inhibition of the binding of kistrin to human vitronectin receptor (VnR) described below is a test method by which the antagonistic action of the compounds of the invention on the vitronectin receptor αvβ3 can be determined (αvβ3 ELISA Test; the test method is abbreviated as “K/VnR” in the listing of the test results).
Kistrin is purified according to the methods of Dennis et al., as described in Proc. Natl. Acad. Sci. USA 87 (1989) 2471 and Proteins: Structure, Function and Genetics 15 (1993) 312.
Purification of Human Vitronectin Receptor (αvβ3)
144 (1987) 475. Human vitronectin receptor αvβ3 can also be obtained from some cell lines (for example from 293 cells, a human embryonic kidney cell line) which are co-transfected with DNA sequences for both subunits αv and β3 of the vitronectin receptor. The subunits are extracted with octyl glycoside and then chromatographed through concanavalin A, heparin-Sepharose and S-300.
Murine monoclonal antibodies which are specific for the β3 subunits of the vitronectin receptor, are prepared according to the method of Newman et al., Blood, 1985, 227, or by a similar process. The rabbit Fab 2 anti-mouse Fc conjugate to horseradish peroxidase (anti-mouse Fc HRP) was obtained from Pel Freeze (Catalog No. 715 305-1).
The ability of substances to inhibit the binding of kistrin to the vitronectin receptor can be determined using an ELISA test. For this purpose, Nunc 96-well microtiter plates are coated with a solution of kistrin (0.002 mg/ml) according to the method of Dennis et al., as described in Proteins: Structure, Function and Genetics 15 (1993) 312. The plates are then washed twice with PBS/0.05% Tween-20 and blocked by incubating (60 min) with bovine serum albumin (BSA, 0.5%, RIA grade or better) in buffer solution (Tris-HCl (50 mM), NaCl (100 mM), MgCl2 (1 mM), CaCl2 (1 mM), MnCl2 (1 mM), pH 7). Solutions of known inhibitors and of the test substances are prepared in concentrations from 2×10^−12 to 2×10^−6 mol/l in assay buffer (BSA (0.5%, RIA grade or better); Tris-HCl (50 mM), NaCl (100 mM), MgCl2 (1 mM), CaCl2 (1 mM), MnCl2 (1 mM), pH 7). The blocked plates are emptied, and in each case 0.025 ml of this solution which contains a defined concentration (2×10^−12 to 2×10^−6 mol/l) either of a known inhibitor or of a test substance, are added to each well. 0.025 ml of a solution of the vitronectin receptor in assay buffer (0.03 mg/ml) is pipetted into each well of the plate and the plate is incubated at room temperature for 60-180 min on a shaker. In the meantime, a solution (6 ml/plate) of a murine monoclonal antibody specific for the β3 subunit of the vitronectin receptor is prepared in assay buffer (0.0015 mg/ml). A second rabbit antibody (0.001 ml of stock solution/6 ml of the murine monoclonal anti-β3 antibody solution) which is an anti-mouse Fc HRP antibody conjugate is added to this solution, and this mixture of murine anti-β3 antibody and rabbit anti-mouse Fc HRP antibody conjugate is incubated during the time of the receptor-inhibitor incubation. The test plates are washed four times with PBS solution which contains 0.05% Tween-20, and in each case 0.05 ml/well of the antibody mixture is pipetted into each well of the plate and incubated for 60-180 min. The plate is washed four times with PBS/0.05% Tween-20 and then developed with 0.05 ml/well of a PBS solution which contains 0.67 mg/ml of o-phenylenediamine and 0.012% of H2O2. Alternatively to this, o-phenylenediamine can be employed in a buffer (pH 5) which contains Na3PO4 and citric acid. The color development is stopped using 1 N H2SO4 (0.05 ml/well). The absorption for each well is measured at 492-405 nm and the data are evaluated by standard methods.

[3] = molecular target: 293 cells cotransfected with αv and β3 subunits of the vitronectin receptor αvβ3, binding to human vitronectin (Homo sapiens, UniProt P05106+P06756); test: Vitronectin/293 cell test (Vn/293 cell test); format: cell-based; settings: inhibition of binding of 293 cells to human vitronectin
293 cells cotransfected with αv and β3 subunits of the vitronectin receptor αvβ3, binding to human vitronectin, sequence (P05106 whole entry): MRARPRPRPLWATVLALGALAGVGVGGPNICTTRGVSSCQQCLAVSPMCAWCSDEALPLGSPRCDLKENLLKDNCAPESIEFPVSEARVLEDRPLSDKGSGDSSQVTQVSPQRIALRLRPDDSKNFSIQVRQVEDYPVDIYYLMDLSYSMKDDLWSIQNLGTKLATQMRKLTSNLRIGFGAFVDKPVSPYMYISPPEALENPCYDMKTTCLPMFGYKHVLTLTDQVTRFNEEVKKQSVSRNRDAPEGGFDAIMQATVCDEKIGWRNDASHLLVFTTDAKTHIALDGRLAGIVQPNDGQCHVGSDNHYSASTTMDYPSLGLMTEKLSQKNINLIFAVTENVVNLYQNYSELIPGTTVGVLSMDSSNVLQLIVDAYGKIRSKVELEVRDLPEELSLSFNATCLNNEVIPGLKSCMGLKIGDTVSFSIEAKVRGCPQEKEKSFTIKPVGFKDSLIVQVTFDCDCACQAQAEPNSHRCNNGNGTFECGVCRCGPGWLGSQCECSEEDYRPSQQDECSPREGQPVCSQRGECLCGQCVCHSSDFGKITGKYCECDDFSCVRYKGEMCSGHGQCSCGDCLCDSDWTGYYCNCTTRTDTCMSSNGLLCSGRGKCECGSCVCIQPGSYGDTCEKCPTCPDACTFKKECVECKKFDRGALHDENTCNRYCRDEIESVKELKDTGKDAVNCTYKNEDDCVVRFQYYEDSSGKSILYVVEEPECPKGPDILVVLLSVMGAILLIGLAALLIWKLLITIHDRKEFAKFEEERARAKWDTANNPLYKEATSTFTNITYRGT
293 cells cotransfected with αv and β3 subunits of the vitronectin receptor αvβ3, binding to human vitronectin, sequence (P06756 whole entry): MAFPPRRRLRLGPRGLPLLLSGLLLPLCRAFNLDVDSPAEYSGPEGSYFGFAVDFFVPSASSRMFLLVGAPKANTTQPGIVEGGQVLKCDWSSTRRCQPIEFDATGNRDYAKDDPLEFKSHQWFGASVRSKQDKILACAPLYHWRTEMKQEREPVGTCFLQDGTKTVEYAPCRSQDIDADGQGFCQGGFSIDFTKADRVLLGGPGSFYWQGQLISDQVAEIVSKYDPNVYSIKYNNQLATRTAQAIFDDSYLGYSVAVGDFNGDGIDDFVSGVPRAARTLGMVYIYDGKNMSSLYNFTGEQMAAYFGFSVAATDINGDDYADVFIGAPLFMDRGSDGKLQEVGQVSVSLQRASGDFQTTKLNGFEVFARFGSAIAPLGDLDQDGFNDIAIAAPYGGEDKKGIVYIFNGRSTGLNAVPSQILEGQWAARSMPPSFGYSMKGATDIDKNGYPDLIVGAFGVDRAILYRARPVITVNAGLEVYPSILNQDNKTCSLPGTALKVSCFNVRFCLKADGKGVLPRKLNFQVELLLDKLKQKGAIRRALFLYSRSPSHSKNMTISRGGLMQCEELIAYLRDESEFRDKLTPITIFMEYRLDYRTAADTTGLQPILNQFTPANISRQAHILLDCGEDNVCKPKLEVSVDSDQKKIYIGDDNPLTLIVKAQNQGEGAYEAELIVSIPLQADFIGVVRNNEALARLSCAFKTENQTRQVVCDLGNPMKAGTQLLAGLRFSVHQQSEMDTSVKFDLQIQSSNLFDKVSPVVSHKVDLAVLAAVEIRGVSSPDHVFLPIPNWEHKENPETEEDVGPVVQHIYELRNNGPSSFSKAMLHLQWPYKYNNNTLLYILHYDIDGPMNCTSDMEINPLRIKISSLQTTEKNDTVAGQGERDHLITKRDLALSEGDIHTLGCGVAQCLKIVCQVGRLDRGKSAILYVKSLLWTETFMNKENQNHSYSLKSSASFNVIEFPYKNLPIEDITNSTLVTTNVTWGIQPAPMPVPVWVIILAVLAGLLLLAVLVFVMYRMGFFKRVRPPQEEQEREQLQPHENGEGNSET
Protocol: 2) Vitronectin/293 Cell Test
In this test the inhibition of binding of 293 cells to human vitronectin (Vn) by the compounds of the invention is determined (the test method is abbreviated as Vn/293 cell test in the listing of the test results).
Purification of Human Vitronectin
Human vitronectin was isolated from human plasma and purified by affinity chromatography according to the method of Yatohgo et al., Cell Structure and Function 23 (1988) 281.
293 cells, a human embryonic kidney cell line, which were cotransfected with DNA sequences for the αv and β3 subunits of the vitronectin receptor αvβ3, were selected for a high rate of expression (>500,000 αvβ3 receptors/cell) according to the FACS method. The selected cells were cultured and sorted again by means of FACS in order to obtain a stable cell line (15 D) with expression rates>1,000,000 copies of αvβ3 per cell.
A Linbro 96-well tissue culture plate with a flat bottom was coated overnight at 4° C. with human vitronectin (0.01 mg/ml, 0.05 ml/well) in phosphate-buffered saline solution (PBS) and then blocked with 0.5% strength BSA (bovine serum albumin). Solutions of the test substances from 10^−10 mol/l to 2×10^−3 mol/l in glucose-containing DMEM medium were prepared and 0.05 ml/well of the solution were added to the plate in each case. The cells which expressed high levels of αvβ3 (for example 15 D) were suspended in glucose-containing DMEM medium and the suspension was adjusted to a content of 25,000 cells/0.05 ml of medium. 0.05 ml of this cell suspension was added to each well and the plate was incubated at 37° C. for 90 min. The plate was washed 3 times with warm PBS in order to remove unbound cells. The bound cells were lyzed in citrate buffer (25 mM, pH 5.0) which contained 0.25% Triton X-100. The hexoseamidase substrate p-nitrophenyl-N-acetyl-β-D-glucosaminide was then added and the plate was incubated at 37° C. for 90 min. The reaction was stopped with a glycine (50 mM)/EDTA (5 mM) buffer (pH 10.4) and the absorption of each well was measured at 405 to 650 nm. The data were analyzed according to standard methods.

SMILES	IC50 [1] [µM]	IC50 [2] [µM]	IC50 [3] [µM]
O=C(NC1=NCCCN1)C1CCN(c2ncnc3c2ncn3C[C@H](NS(=O)(=O)c2ccc3ccccc3c2)C(=O)O)CC1 [Example 2, (2S)-2-(Naphthalene-2-sulfonylamino)-3-(6-(4-(1,4,5,6-tetrahydropyrimidin-2-ylcarbamoyl)-piperidin-1-yl)-purin-9-yl)-propionic acid]	0.0023	0.0025	0.009
CCCS(=O)(=O)N[C@@H](Cn1cnc2c(N3CCC(C(=O)NC4=NCCCN4)CC3)ncnc21)C(=O)O [Example 4, (2S)-2-(Propane-1-sulfonylamino)-3-(6-(4-(1,4,5,6-tetrahydropyrimidin-2-ylcarbamoyl)-piperidin-1-yl)-purin-9-yl)-propionic acid]		0.025	1.4
O=C(NC1=NCCCN1)C1CCN(c2ncnc3c2ncn3C[C@H](NS(=O)(=O)c2cccc(C(F)(F)F)c2)C(=O)O)CC1 [Example 6, (2S)-3-(6-(4-(1,4,5,6-Tetrahydropyrimidin-2-ylcarbamoyl)-piperidin-1-yl)-purin-9-yl)-2-(3-trifluoromethyl-benzenesulfonylamino)-propionic acid]		0.0034	0.042
O=C(NC1=NCCCN1)C1CCN(c2ncnc3c2ncn3C[C@H](NS(=O)(=O)Cc2ccccc2)C(=O)O)CC1 [Example 7, (2S)-2-Phenylmethanesulfonylamino-3-(6-(4-(1,4,5,6-tetrahydropyrimidin-2-ylcarbamoyl)-piperidin-1-yl)-purin-9-yl)-propionic acid]		0.023	0.5
O=C(NC1=NCCCN1)C1CCN(c2ncnc3c2ncn3C[C@H](NS(=O)(=O)C(F)(F)F)C(=O)O)CC1 [Example 8, (2S)-3-(6-(4-(1,4,5,6-Tetrahydropyrimidin-2-ylcarbamoyl)-piperidin-1-yl)-purin-9-yl)-2-trifluoromethanesulfonylamino-propionic acid]		0.085	
O=C(NC1=NCCCN1)C1CCN(c2ncnc3c2ncn3C[C@H](NS(=O)(=O)CC(F)(F)F)C(=O)O)CC1 [Example 9, (2S)-3-(6-(4-(1,4,5,6-Tetrahydropyrimidin-2-ylcarbamoyl)-piperidin-1-yl)-purin-9-yl)-2-(2,2,2-trifluoro-ethanesulfonylamino)-propionic acid]		0.038	2.5
Cc1ccc(S(=O)(=O)N[C@@H](Cn2cnc3c(N4CCC(C(=O)NC5=NCCCN5)CC4)ncnc32)C(=O)O)cc1 [Example 11, (2S)-3-(6-(4-(1,4,5,6-Tetrahydropyrimidin-2-ylcarbamoyl)-piperidin-1-yl)-purin-9-yl)-2-(toluene-4-sulfonylamino)-propionic acid]		0.0065	0.087

More lines, now with the values ahead:

IC50 [1] [µM]	IC50 [2] [µM]	IC50 [3] [µM]	SMILES
0.0008	0.0019	0.03	O=C(NC1=NCCCN1)C1CCN(c2ncnc3c2ncn3C[C@H](NS(=O)(=O)c2cccc3ccccc23)C(=O)O)CC1 [Example 1, (2S)-2-(Naphthalene-1-sulfonylamino)-3-(6-(4-(1 ,4,5,6-tetrahydropyrimidin-2-ylcarbamoyl)-piperidin-1-yl)-purin-9-yl)-propionic acid]
	0.0045	0.067	CC(C)(C)c1ccc(S(=O)(=O)N[C@@H](Cn2cnc3c(N4CCC(C(=O)NC5=NCCCN5)CC4)ncnc32)C(=O)O)cc1 [Example 3, (2S)-2-(4-tert-Butyl-benzenesulfonylamino)-3-(6-(4-(1,4,5,6-tetrahydropyrimidin-2-ylcarbamoyl)-piperidin-1-yl)-purin-9-yl)-propionic acid]
0.015	0.0032	0.028	O=C(NC1=NCCCN1)C1CCN(c2ncnc3c2ncn3C[C@H](NS(=O)(=O)c2ccc(C(F)(F)F)cc2)C(=O)O)CC1 [Example 5, (2S)-3-(6-(4-(1,4,5,6-Tetrahydropyrimidin-2-ylcarbamoyl)-piperidin-1-yl)-purin-9-yl)-2-(4-trifluoromethyl-benzenesulfonylamino)-propionic acid]
	0.0042	1.12	CC(C)CS(=O)(=O)N[C@@H](Cn1cnc2c(N3CCC(C(=O)NC4=NCCCN4)CC3)ncnc21)C(=O)O [Example 10, (2S)-2-(2-Methylpropane-1-sulfonylamino)-3-(6-(4-(1,4,5,6-tetrahydropyrimidin-2-ylcarbamoyl)-piperidin-1-yl)-purin-9-yl)-propionic acid]
0.026	0.005	0.038	Cc1cc(C)c(S(=O)(=O)N[C@@H](Cn2cnc3c(N4CCC(C(=O)NC5=NCCCN5)CC4)ncnc32)C(=O)O)c(C)c1 [Example 12, (2S)-3-(6-(4-(1,4,5,6-Tetrahydropyrimidin-2-ylcarbamoyl)-piperidin-1-yl)-purin-9-yl)-2-(2,4,6-trimethyl-benzenesulfonylamino)-propionic acid]
